Assay results as given in US10670605B2, “Cysteine reactive probes and uses thereof” (The Scripps Research Institute, priority 2015, dated 2020).

Experiments:
Test in all cases: Competitive isoTOP-ABPP in situ (fragment-treated cells)
Type in all cases: cell-based
[1] = target: T1, cysteines in MDA-MB-231 and Ramos cells (Homo sapiens, UniProt P46734)
T1 sequence (P46734 1-347): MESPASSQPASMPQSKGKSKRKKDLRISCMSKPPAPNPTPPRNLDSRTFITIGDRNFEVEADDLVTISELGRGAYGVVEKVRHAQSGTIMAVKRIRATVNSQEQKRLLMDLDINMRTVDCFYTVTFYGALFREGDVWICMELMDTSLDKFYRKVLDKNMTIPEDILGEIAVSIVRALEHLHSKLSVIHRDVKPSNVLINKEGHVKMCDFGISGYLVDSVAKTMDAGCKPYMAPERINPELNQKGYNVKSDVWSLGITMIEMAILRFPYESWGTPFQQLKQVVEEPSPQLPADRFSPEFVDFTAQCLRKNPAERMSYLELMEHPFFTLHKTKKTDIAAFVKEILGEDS

[2] = target: cysteines in MDA-MB-231 and Ramos cells (Homo sapiens, UniProt P15121)
[3] = target: cysteines in MDA-MB-231 and Ramos cells (Homo sapiens, UniProt O60610)
[4] = target: T2, cysteines in MDA-MB-231 and Ramos cells (Homo sapiens, UniProt P50570)
T2 sequence (P50570 1-870): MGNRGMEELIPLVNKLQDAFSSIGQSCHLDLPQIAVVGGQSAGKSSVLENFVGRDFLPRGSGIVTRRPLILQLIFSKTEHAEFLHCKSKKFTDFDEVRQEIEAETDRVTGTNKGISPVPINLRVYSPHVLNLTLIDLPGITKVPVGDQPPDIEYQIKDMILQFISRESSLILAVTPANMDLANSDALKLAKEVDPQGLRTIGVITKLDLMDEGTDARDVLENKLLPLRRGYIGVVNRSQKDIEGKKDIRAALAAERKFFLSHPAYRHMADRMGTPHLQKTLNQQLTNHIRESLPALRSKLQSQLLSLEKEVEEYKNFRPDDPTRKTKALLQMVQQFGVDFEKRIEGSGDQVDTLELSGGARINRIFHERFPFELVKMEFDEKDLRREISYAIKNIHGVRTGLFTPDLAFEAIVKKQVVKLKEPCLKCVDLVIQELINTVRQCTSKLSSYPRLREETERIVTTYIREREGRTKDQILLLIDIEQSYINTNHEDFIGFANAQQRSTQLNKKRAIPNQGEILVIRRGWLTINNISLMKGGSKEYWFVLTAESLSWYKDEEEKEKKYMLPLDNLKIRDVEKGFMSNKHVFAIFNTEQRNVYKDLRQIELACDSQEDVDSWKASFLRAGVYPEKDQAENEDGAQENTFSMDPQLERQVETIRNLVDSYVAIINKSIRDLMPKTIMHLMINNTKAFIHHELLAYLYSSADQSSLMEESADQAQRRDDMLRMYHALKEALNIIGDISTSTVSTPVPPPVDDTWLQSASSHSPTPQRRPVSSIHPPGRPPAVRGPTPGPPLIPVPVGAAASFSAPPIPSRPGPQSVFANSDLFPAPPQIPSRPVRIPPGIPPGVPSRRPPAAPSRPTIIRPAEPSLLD

[5] = target: T3, cysteines in MDA-MB-231 and Ramos cells (Homo sapiens, UniProt O75521)
T3 sequence (O75521 39-394): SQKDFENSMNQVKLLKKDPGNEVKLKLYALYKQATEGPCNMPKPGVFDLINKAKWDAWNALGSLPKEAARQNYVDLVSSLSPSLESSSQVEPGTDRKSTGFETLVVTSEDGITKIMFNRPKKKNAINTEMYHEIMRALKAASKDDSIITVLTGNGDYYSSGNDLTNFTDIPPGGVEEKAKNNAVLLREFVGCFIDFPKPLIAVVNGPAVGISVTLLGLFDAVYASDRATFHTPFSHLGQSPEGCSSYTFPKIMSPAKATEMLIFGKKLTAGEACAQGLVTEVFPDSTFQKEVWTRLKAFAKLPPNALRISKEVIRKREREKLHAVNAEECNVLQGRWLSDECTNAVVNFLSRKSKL

[6] = target: T4, cysteines in MDA-MB-231 and Ramos cells (Homo sapiens, UniProt Q9BTA9)
T4 sequence (Q9BTA9 1-647): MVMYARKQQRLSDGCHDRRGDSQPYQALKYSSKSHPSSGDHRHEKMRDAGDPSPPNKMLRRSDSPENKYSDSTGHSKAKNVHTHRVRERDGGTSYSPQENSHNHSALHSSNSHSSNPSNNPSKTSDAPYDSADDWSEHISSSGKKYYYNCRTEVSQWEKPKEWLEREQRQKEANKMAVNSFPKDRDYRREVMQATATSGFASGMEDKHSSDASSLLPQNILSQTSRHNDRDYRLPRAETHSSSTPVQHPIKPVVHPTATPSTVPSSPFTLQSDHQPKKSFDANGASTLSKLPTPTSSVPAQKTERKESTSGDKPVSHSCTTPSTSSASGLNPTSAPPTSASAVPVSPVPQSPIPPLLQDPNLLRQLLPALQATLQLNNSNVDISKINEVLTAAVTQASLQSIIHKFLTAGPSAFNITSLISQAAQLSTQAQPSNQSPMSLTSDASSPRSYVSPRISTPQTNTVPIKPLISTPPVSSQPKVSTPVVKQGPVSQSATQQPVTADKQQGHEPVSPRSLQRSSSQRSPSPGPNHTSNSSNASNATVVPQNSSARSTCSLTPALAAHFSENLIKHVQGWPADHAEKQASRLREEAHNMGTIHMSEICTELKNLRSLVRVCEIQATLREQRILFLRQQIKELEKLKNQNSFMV

Chain of cysteines in MDA-MB-231 and Ramos cells (Homo sapiens, UniProt O60610) (O60610 whole entry): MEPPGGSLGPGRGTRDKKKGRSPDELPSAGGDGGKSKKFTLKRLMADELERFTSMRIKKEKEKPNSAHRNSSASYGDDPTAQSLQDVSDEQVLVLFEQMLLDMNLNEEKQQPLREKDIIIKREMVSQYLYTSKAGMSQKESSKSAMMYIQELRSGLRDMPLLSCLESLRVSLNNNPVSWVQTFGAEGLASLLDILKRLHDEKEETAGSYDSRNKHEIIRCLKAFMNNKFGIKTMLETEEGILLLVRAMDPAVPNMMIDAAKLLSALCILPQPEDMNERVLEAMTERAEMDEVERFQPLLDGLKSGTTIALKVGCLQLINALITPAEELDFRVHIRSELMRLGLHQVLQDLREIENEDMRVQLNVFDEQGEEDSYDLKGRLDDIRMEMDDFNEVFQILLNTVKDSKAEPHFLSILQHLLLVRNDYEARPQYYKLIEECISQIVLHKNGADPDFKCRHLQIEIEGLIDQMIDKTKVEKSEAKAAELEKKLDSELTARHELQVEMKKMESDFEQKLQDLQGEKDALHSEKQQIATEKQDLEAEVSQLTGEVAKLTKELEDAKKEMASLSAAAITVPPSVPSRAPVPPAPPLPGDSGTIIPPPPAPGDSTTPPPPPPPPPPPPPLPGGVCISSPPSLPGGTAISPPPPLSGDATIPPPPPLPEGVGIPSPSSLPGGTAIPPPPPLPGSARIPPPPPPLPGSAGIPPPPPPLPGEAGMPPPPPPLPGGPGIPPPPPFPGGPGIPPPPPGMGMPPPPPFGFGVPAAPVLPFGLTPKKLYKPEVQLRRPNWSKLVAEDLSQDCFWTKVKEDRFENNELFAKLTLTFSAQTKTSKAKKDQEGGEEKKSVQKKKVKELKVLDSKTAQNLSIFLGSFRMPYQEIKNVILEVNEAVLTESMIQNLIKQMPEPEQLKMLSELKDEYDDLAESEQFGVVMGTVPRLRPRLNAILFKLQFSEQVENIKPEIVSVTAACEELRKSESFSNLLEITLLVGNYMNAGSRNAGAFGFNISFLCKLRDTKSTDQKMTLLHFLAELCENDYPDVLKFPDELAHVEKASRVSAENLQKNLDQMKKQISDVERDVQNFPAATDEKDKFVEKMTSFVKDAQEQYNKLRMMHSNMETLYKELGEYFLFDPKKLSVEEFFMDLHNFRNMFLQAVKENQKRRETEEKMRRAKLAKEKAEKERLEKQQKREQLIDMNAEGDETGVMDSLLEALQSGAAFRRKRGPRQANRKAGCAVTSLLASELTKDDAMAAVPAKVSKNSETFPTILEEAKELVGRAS

Structure (SMILES) | isoTOP-ABPP ratio P46734_C207 ([1]; 200 μM, insitu, 231) | isoTOP-ABPP ratio P15121_C299 ([2]; 200 μM, insitu, 231) | isoTOP-ABPP ratio O60610_C1227 ([3]; 200 μM, insitu, 231) | isoTOP-ABPP ratio P50570_C27 ([4]; 200 μM, insitu, 231) | isoTOP-ABPP ratio O75521_C312 ([5]; 200 μM, insitu, 231) | isoTOP-ABPP ratio O75521_C380 ([5]; 200 μM, insitu, 231) | isoTOP-ABPP ratio Q9BTA9_C553 ([6]; 200 μM, insitu, 231) | further results
COc1ccc2c(c1)CCCN2C(=O)CCl [compound 2] |  |  |  |  |  |  |  | isoTOP-ABPP reactivity P46734_C207 MAP2K3 ([1]; 200 μM, insitu, 231): 0.8; isoTOP-ABPP reactivity P15121_C299 AKR1B1 ([2]; 200 μM, insitu, 231): 0.9; isoTOP-ABPP reactivity O60610_C1227 DIAPH1 ([3]; 200 μM, insitu, 231): 2.2; isoTOP-ABPP reactivity P50570_C27 DNM2 ([4]; 200 μM, insitu, 231): 4.6; isoTOP-ABPP reactivity O75521_C312 ECI2 ([5]; 200 μM, insitu, 231): 0.7; isoTOP-ABPP reactivity O75521_C380 ECI2 ([5]; 200 μM, insitu, 231): 0.6; isoTOP-ABPP reactivity Q9BTA9_0553 WAC ([6]; 200 μM, insitu, 231): 17.6
COc1ccc(C2CC(c3cccs3)=NN2C(=O)CCl)cc1 (centres unmarked) [compound 4] |  |  |  |  |  |  |  | isoTOP-ABPP reactivity P46734_C207 MAP2K3 ([1]; 100 μM in situ 231): 0.6; isoTOP-ABPP reactivity P15121_C299 AKR1B1 ([2]; 100 μM in situ 231): 1.0; isoTOP-ABPP reactivity O60610_C1227 DIAPH1 ([3]; 100 μM in situ 231): 1.6; isoTOP-ABPP reactivity P50570_C27 DNM2 ([4]; 100 μM in situ 231): 2.2; isoTOP-ABPP reactivity O75521_C312 ECI2 ([5]; 100 μM in situ 231): 1.0; isoTOP-ABPP reactivity O75521_C380 ECI2 ([5]; 100 μM in situ 231): 1.6; isoTOP-ABPP reactivity Q9BTA9_0553 WAC ([6]; 100 μM in situ 231): 17.8
COc1cc2c(cc1OC)CN(C(=O)CCl)CC2 [compound 8] |  |  |  |  |  |  |  | isoTOP-ABPP reactivity P46734_C207 MAP2K3 ([1]; 200 μM, insitu, 231): 0.8; isoTOP-ABPP reactivity P15121_C299 AKR1B1 ([2]; 200 μM, insitu, 231): 1.7; isoTOP-ABPP reactivity O75521_C312 ECI2 ([5]; 200 μM, insitu, 231): 0.5; isoTOP-ABPP reactivity O75521_C380 ECI2 ([5]; 200 μM, insitu, 231): 0.8; isoTOP-ABPP reactivity Q9BTA9_0553 WAC ([6]; 200 μM, insitu, 231): 9.6
O=C(CCl)N1CCC(Cc2ccccc2)CC1 [compound 9] |  |  |  |  |  |  |  | isoTOP-ABPP reactivity P46734_C207 MAP2K3 ([1]; 200 μM, insitu, 231): 3.3; isoTOP-ABPP reactivity P15121_C299 AKR1B1 ([2]; 200 μM, insitu, 231): 1.4; isoTOP-ABPP reactivity O60610_C1227 DIAPH1 ([3]; 200 μM, insitu, 231): 1.5; isoTOP-ABPP reactivity O75521_C312 ECI2 ([5]; 200 μM, insitu, 231): 0.5; isoTOP-ABPP reactivity O75521_C380 ECI2 ([5]; 200 μM, insitu, 231): 0.7
O=C(CCl)N1CCN(S(=O)(=O)c2ccccc2F)CC1 [compound 10] | 0.8 | 20.0 | 1.5 | 3.1 | 5.0 | 4.8 | 20.0 | isoTOP-ABPP ratio O60610_C1227 ([3]; 200 μM, insitu, ramos): 1.4
Cn1cc(S(=O)(=O)N2CCOCC2)cc1C(=O)NC(=O)CCl [compound 11] |  |  |  |  |  |  |  | isoTOP-ABPP ratio P46734_C207 ([1]; 100 μM in situ 231): 0.6; isoTOP-ABPP ratio P15121_C299 ([2]; 100 μM in situ 231): 0.7; isoTOP-ABPP ratio O60610_C1227 ([3]; 100 μM in situ 231): 0.9; isoTOP-ABPP ratio P50570_C27 ([4]; 100 μM in situ 231): 0.7; isoTOP-ABPP ratio O75521_C380 ([5]; 100 μM in situ 231): 0.8; isoTOP-ABPP ratio Q9BTA9_C553 ([6]; 100 μM in situ 231): 1.7
O=C(CCl)NC12CC3CC(CC(C3)C1)C2 [compound 21] | 0.9 | 2.7 | 20.0 | 0.8 | 1.6 | 1.8 | 2.8 | 
CC(C)CCOCCNC(=O)CCl [compound 27] | 0.8 | 0.5 | 0.5 | 0.5 | 1.1 | 1.6 |  | 
COc1ccccc1OCCNC(=O)CCl [compound 28] |  | 0.8 |  |  |  | 0.8 |  | 
O=C(CCl)N1CCN(CC(=O)N2CCOCC2)CC1 [compound 29] |  |  |  |  |  |  |  | isoTOP-ABPP ratio P15121_C299 ([2]; 200 μM, insitu, ramos): 1.1; isoTOP-ABPP ratio O60610_C1227 ([3]; 200 μM, insitu, ramos): 1.6; isoTOP-ABPP ratio P50570_C27 ([4]; 200 μM, insitu, ramos): 1.0; isoTOP-ABPP ratio O75521_C380 ([5]; 200 μM, insitu, ramos): 1.2; isoTOP-ABPP ratio Q9BTA9_C553 ([6]; 200 μM, insitu, ramos): 1.1
Cc1ccc(C=C(C#N)C(=O)NCCN2CCOCC2)cc1 [compound 41] | 0.7 | 0.9 | 0.6 | 0.5 |  | 1.1 | 1.0 | 
CC1CCc2ccccc2N1C(=O)CCl (centres unmarked) [compound 45] | 1.5 | 1.0 | 3.0 | 15.4 | 0.7 | 1.2 | 19.1 | 

Second part, led by results:

isoTOP-ABPP ratio P46734_C207 ([1]; 200 μM, insitu, 231) | isoTOP-ABPP ratio P15121_C299 ([2]; 200 μM, insitu, 231) | isoTOP-ABPP ratio O60610_C1227 ([3]; 200 μM, insitu, 231) | isoTOP-ABPP ratio P50570_C27 ([4]; 200 μM, insitu, 231) | isoTOP-ABPP ratio O75521_C312 ([5]; 200 μM, insitu, 231) | isoTOP-ABPP ratio O75521_C380 ([5]; 200 μM, insitu, 231) | isoTOP-ABPP ratio Q9BTA9_C553 ([6]; 200 μM, insitu, 231) | Structure (SMILES) | further results
0.7 | 0.7 | 0.8 | 0.7 | 4.2 | 1.9 |  | O=C(CCl)NC(=O)NC12CC3CC(CC(C3)C1)C2 [compound 12] | 
0.8 |  | 0.7 |  | 0.7 | 1.0 | 1.4 | O=C(CCl)NCCc1c[nH]c2ccccc12 [compound 13] | isoTOP-ABPP ratio P15121_C299 ([2]; 200 μM, insitu, ramos): 0.8; isoTOP-ABPP ratio O60610_C1227 ([3]; 200 μM, insitu, ramos): 0.9; isoTOP-ABPP ratio P50570_C27 ([4]; 200 μM, insitu, ramos): 1.0
 | 0.8 | 0.6 |  |  |  |  | C=CC(=O)N(Cc1cccnc1)c1cc(C(F)(F)F)cc(C(F)(F)F)c1 [compound 31] | isoTOP-ABPP ratio P15121_C299 ([2]; 200 μM, insitu, ramos): 1.3; isoTOP-ABPP ratio O60610_C1227 ([3]; 200 μM, insitu, ramos): 1.2
1.5 | 1.0 | 0.3 | 0.9 | 1.1 | 0.9 | 1.1 | C=CC(=O)Nc1cc(F)c(N2CCN(C(=O)OC(C)(C)C)CC2)c(F)c1 [compound 38] | 
0.7 | 0.9 |  | 1.1 |  | 1.0 | 1.2 | O=C(CCl)Nc1cccc2ncccc12 [compound 51] | 
